US20080145313A1, “Compositions and Methods for the Treatment and Prevention of Neoplastic Disorders” (Genesis Research & Development Corporation Limited, priority 2006, published 2008)

Key:
A549 xenograft tumor = assay: Xenograft tumor growth of A549 cells transfected with siRNA pre-implantation in CD-1 nude mice; type: in vivo, mouse
Protocol: To determine the effect of RRM1 knockdown on tumor growth, A549 cells (human lung cancer cell line; ATCC No. CCL-185) were reverse-transfected prior to implantation in CD-1 nude mice. In 175 cm^2 culture flasks, 10×10^6 A549 cells (in RPMI supplemented with 10% fetal calf serum) were added to pre-made lipoplexes. To make lipoplexes, Lipofectamine RNAiMAX in serum-free RPMI was added to an equal volume of serum-free RPMI containing siRNA (RRM1-2; SEQ ID NO: 4831 (DNA), and SEQ ID NO: 5137 (RNA)) and a control siRNA (SEQ ID NO: 4804 (DNA), and SEQ ID NO: 5301 (RNA)). After addition of cells, the final concentration of siRNA in the flask was 10 nM. Untransfected cells served as a further control. Flasks were incubated at 37° C. for 24 h to allow transfection to proceed.
The cells were harvested by trypsinization 24 h after the transfection, washed twice in PBS and viable cells were counted. Equal numbers of cells (1×10^7) were inoculated into CD-1 nude mice (n=7-9). Briefly, 5 to 7 weeks old nude mice were subcutaneously (s.c.) injected in the right flank with A549 cells in 100 μl PBS. Tumor growth was monitored 3 times per week by measuring tumor sizes using a digital caliper. Tumor volume was expressed in […] using the formula: V=a^2×b×0.52, where a and b represent the minimum and maximum tumor diameter, respectively. Mean tumor volumes calculated from each measurement were then plotted in a standard graph to compare the tumor growth of transfected cells to that of control.
To determine the effect of siRNA-mediated knockdown of HK-II, CAD, IMPDH2, RRM2, SLC16A1 and SLC29A1 on tumor growth, A549 cells (human lung cancer cell line; ATCC No. CCL-185) were reverse-transfected prior to implantation in CD-1 nude mice as described above with siRNAs given in SEQ ID NO: 5307 (DNA), and SEQ ID NO: 5304 (RNA) for RRM2, SEQ ID NO: 4932 (DNA), and SEQ ID NO: 5227 (RNA) for ENT1, SEQ ID NO: 4813 (DNA), and SEQ ID NO: 5119 (RNA) for HK-II, SEQ ID NO: 4827 (DNA), and SEQ ID NO: 5133 (RNA) for CAD, SEQ ID NO: 4879 (DNA), and SEQ ID NO: 5182 (RNA) for IMPDH2 and SEQ ID NO: 4924 (DNA), and SEQ ID NO: 5219 (RNA) for SLC16A1, respectively. The siRNA given in SEQ ID NO: 4804 (DNA), and SEQ ID NO: 5301 (RNA) was used as control.
In two separate experiments, CD-1 mice were divided into five groups that received untransfected A549 cells, cells transfected with control siRNA or three different siRNAs (as listed above), respectively. Cells were transfected in vitro using the method as described in Example 8, and 24 h after transfection, s.c. inoculated into mice. Tumor growth was measured 3 times per week. In the first experiment, mice received cells transfected with siRNA targeting RRM2, HK-II or SLC29A1 and were monitored for 33 days. In the second experiment, mice received cells transfected with siRNA targeting CAD, IMPDH2 or SLC16A1, and were monitored for 26 days. […] Similarly, preliminary data indicated tumor growth rate was reduced for the groups receiving cells transfected with siRNA targeting CAD and SLC16A1. Twenty-six days after cell inoculation, the tumor volume for mice with cells transfected with siRNA targeting CAD or SLC16A1 was 97.2±7.3 mm^3 or 110.1±28.1 mm^3, respectively.

[1] = system: target transcript mRNA in A549 cells; assay: Level of mRNA of target transcript in A549 cells by quantitative RT-PCR (Tables 12 and 13); type: cell-based, human; details: 24 h post-transfection; for mRNA knockdown of transporter gene target transcript, 10 nM: 10 nM siRNA
Procedure, shortened: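 A549 cells were transfected with siRNA at 0.1, 1.0 and 10 nM. RNA was extracted 24 h later, reverse-transcribed with random primers, and target mRNA quantified by SYBR Green qRT-PCR. Values were normalised to housekeeping genes HPRT and Lamin.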

YBX1 (p47) and p37 = assay: YBX1 protein level by Western blotting in A549 cells; type: cell-based, human; details: 10 nM siRNA; 24 h post-transfection; compared with control siRNA
Protocol: Cell lysates were prepared from A549 cells 24 h post-transfection with 10 nM YBX1-specific siRNA (SEQ ID NO: 4982 (DNA), and SEQ ID NO: 5277 (RNA) was labeled 94; SEQ ID NO: 4983 (DNA), and SEQ ID NO: 5278 (RNA) was labeled 95) or control siRNA (SEQ ID NO: 4804 (DNA), and SEQ ID NO: 5301 (RNA); labeled 81). Following Western blotting onto Immobilon-P PVDF filer (Millipore, Bedford Mass.), membranes were probed with a goat anti-human polyclonal antibody specific for YBX1 (AbCam plc, Cambridge, UK), at a concentration of […]. HRP-conjugated donkey anti-goat IgG ([…]; Santa Cruz) was used as a secondary antibody, and signal was detected with an ECL Plus Western blotting Detection System (GE Healthcare, UK) using a Typhoon Scanner (Molecular Dynamics, GE Healthcare, UK).

Substance	mRNA knockdown of transporter gene target transcript, 0.1 nM ([1]; 0.1 nM siRNA)	mRNA knockdown of transporter gene target transcript, 1 nM ([1]; 1 nM siRNA)	mRNA knockdown of transporter gene target transcript, 10 nM [1]	YBX1 (p47) and p37 protein levels (YBX1 (p47) and p37)	other results
SEQ ID NO: 4924: siRNA targeting SLC16A1 (MCT1) (chain 1 TTAGACTTATCTTTCCCTGCCTTGG; chain 2 UUAGACUUAUCUUUCCCUGCCUUGG; chemistry not given here; one strand in two spellings)	+ (50-70% mRNA knockdown)	++ (70-90% mRNA knockdown)	++ (70-90% mRNA knockdown)	–	tumor growth rate compared to control groups (A549 xenograft tumor; A549 cells transfected with siRNA before s.c. inoculation): reduced; tumor volume (A549 xenograft tumor; twenty-six days after cell inoculation, preliminary data): 110.1±28.1 mm^3
SEQ ID NO: 5307: Stealth siRNA targeting RRM2 (chain 1 AATTCATCCCAATGAGCTTCACAGG; chain 2 AAUUCAUCCCAAUGAGCUUCACAGG; Stealth siRNA, chemical pattern not given here; one strand in two spellings)	–	–	–	–	average tumor size (A549 xenograft tumor; thirty-three days after the cell inoculation, preliminary data): 100.1±116.6 mm^3; mRNA knockdown of energy and metabolism gene target transcript, 0.1 nM ([1]; 0.1 nM siRNA): + (50-70% mRNA knockdown); mRNA knockdown of energy and metabolism gene target transcript, 1 nM ([1]; 1 nM siRNA): ++ (70-90% mRNA knockdown)
SEQ ID NO: 4982: siRNA targeting YBX1 (chain 1 TTTGCTGGTAATTGCGTGGAGGACC; chain 2 UUUGCUGGUAAUUGCGUGGAGGACC; chemistry not given here; one strand in two spellings)	–	–	–	reduction in YBX1 (p47) and p37 protein levels	–
SEQ ID NO: 4932: siRNA targeting SLC29A1 (ENT1) (chain 1 TGATAAAGTAGCCGAAGGCACTTTC; chain 2 UGAUAAAGUAGCCGAAGGCACUUUC; chemistry not given here; one strand in two spellings)	++ (70-90% mRNA knockdown)	++ (70-90% mRNA knockdown)	++ (70-90% mRNA knockdown)	–	tumor growth inhibition compared to the control groups (A549 xenograft tumor; cells transfected pre-implantation, monitored 33 or 26 days): No tumor growth inhibition
SEQ ID NO: 4983: siRNA targeting YBX1 (chain 1 TACTGTGGTCGACGCCCATAGGGTC; chain 2 UACUGUGGUCGACGCCCAUAGGGUC; chemistry not given here; one strand in two spellings)	–	–	–	reduction in YBX1 (p47) and p37 protein levels	–
